Converted amounts (≈) assume the structure as drawn. Like-named read-outs stand apart in the source and are kept apart here.
Experiments:
[1] = test system: lipoprotein lipase (LPL) gene; assay: LPL mRNA elevating action (RT-PCR quantification of LPL mRNA in C2Cl2 cells); type: cell-based, mouse; settings: Mus musculus, 24 h, compound 10 μM, ratio relative to the amount of LPL mRNA in cells with DMSO only, read-out: Rate of increase in LPL mRNA
How it was run: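 Mouse striated-muscle C2Cl2 cells in DMEM with 10% FBS exposed to compounds at 10 μM for 24 h. LPL mRNA quantified by RT-PCR and real-time PCR (20 cycles), expressed as ratio to DMSO-only cells set at 1.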

[2] = Solubility in gastric juice or intestinal juice model fluid (precipitation method using DMSO); type: physicochemical; settings: room temperature
How it was run: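 Compound in DMSO added to JP disintegration test fluid 1 (pH 1.2) or fluid 2 (pH 6.8) and shaken 24 h at room temperature. After filtration, dissolved concentration (μg/mL) determined by UV absorbance against compound calibration curves.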

[3] = pH 1.2, simulated gastric fluid, kinetic from dmso stock, 1st fluid for Disintegration Test of Japanese Pharmacopoeia (pH: 1.2), read-out: Solubility (μg/mL) 1st fluid
[4] = pH 6.8, kinetic from dmso stock, 2nd fluid for Disintegration Test of Japanese Pharmacopoeia (pH: 6.8), read-out: Solubility (μg/mL) 2nd fluid

| Compound | melting point [°C] | solubility at 24 h [2, 3] [µg/mL] | solubility at 24 h [2, 4] [µg/mL] | fold induction at 10 µM [1] |
| --- | --- | --- | --- | --- |
| COc1cc(OCc2ncc(C(F)(F)F)cc2F)ccc1-c1[nH]c(-c2ccc(F)nc2)nc1F [Example 319] | 156 to 158 | 4.7 (≈ 9.78 µM) | 0.5 (≈ 1.04 µM) | 3.74 |
| COc1cc(OCc2cnc(Cl)s2)ccc1-c1cnc(-c2ccc(F)nc2)[nH]1 [Example 321] | 109 to 116 | 69.4 (≈ 166 µM) | 1.9 (≈ 4.56 µM) | 1.82 |
| COc1cc(OCc2cc(C(C)C)no2)ccc1-c1cnc(-c2ccc(F)nc2)[nH]1 [Example 322] | 227 to 232 | 72 (≈ 176 µM) | 1.3 (≈ 3.18 µM) | 1.55 |
| COc1cc(-c2[nH]c(-c3ccc(F)nc3)nc2Cl)ccc1OCc1ncc(C(F)(F)F)cc1F [Example 325] | 165 to 170 | 4.7 (≈ 9.46 µM) | 1.3 (≈ 2.62 µM) | 2.44 |
| CCOC(C)n1cc(-c2ccc(OCc3ccc(C(F)(F)F)nc3)cc2OC)nc1-c1ccc(F)nc1 (centres unmarked) [Example 328] | 102 to 104 | 44.2 (≈ 85.6 µM) | 0.4 (≈ 0.774 µM) | 2.41 |
| COc1cc(OCc2ccc(C(F)(F)F)nc2)ccc1-c1[nH]c(-c2ccc(F)nc2)nc1I [Example 329] | 195 to 208 | 5.8 (≈ 10.2 µM) | 13.6 (≈ 23.8 µM) | 2.96 |
| CCOC(C)n1c(-c2ccc(F)nc2)nc(-c2ccc(OCc3ccc(C(F)(F)F)nc3)cc2OC)c1I (centres unmarked) [Example 330] | 129 to 131 | 6.5 (≈ 10.1 µM) | 0.9 (≈ 1.4 µM) | 1.88 |
| COc1cc(OCc2ncc(C(F)(F)F)cc2F)ccc1-c1[nH]c(-c2ccc(F)nc2)nc1C [Example 331] | 100 to 105 | 94.6 (≈ 199 µM) | 8 (≈ 16.8 µM) | 2.17 |
| COc1cc(OCc2ccccc2)ccc1-c1[nH]c(-c2ccc(F)nc2)nc1C [Example 332] | 169 to 171 | 77.7 (≈ 200 µM) | 3.3 (≈ 8.47 µM) | 1.91 |
| COc1cc(O)ccc1-c1[nH]c(-c2ccc(F)nc2)nc1C [Example 333] | 154 to 159 | 59 (≈ 197 µM) | 5.2 (≈ 17.4 µM) | 1.22 |
| COc1cc(OCc2noc(C3CC3)n2)ccc1-c1cnc(-c2ccc(F)nc2)[nH]1 [Example 334] | 153 to 158 | 76.6 (≈ 188 µM) | 7.8 (≈ 19.1 µM) | 1.78 |
| COc1cc(OCc2ncc(C(F)(F)F)cc2F)ccc1-c1cnc(C2CCC(F)(F)CC2)[nH]1 [Example 335] | 105 to 110 | 93.4 (≈ 192 µM) | 6.6 (≈ 13.6 µM) | 2.37 |

Further lines, with some results ahead:

| melting point [°C] | solubility at 24 h [2, 3] [µg/mL] | solubility at 24 h [2, 4] [µg/mL] | Compound | fold induction at 10 µM [1] |
| --- | --- | --- | --- | --- |
| 157 to 159 | 78.3 (≈ 161 µM) | 17 (≈ 35 µM) | COc1cc(-c2cnc(C3CCC(F)(F)CC3)[nH]2)ccc1OCc1ncc(C(F)(F)F)cc1F [Example 323] | 1.72 |
| 173 to 176 | 63.7 (≈ 123 µM) | 0.7 (≈ 1.35 µM) | COc1cc(-c2[nH]c(C3CCC(F)(F)CC3)nc2Cl)ccc1OCc1ncc(C(F)(F)F)cc1F [Example 326] | 2.63 |
| 203 to 204 | 110 (≈ 194 µM) | 0.7 (≈ 1.24 µM) | COc1cc(-c2[nH]c(C3CCC(F)(F)CC3)nc2Br)ccc1OCc1ncc(C(F)(F)F)cc1F [Example 327] | 3.06 |
| 172 to 174 | 89.3 (≈ 172 µM) | 0.4 (≈ 0.769 µM) | COc1cc(OCc2ncc(C(F)(F)F)cc2F)ccc1-c1[nH]c(C2CCC(F)(F)CC2)nc1Cl [Example 336] | 3.23 |
| 190 to 191 | 110 (≈ 195 µM) | 0.5 (≈ 0.886 µM) | COc1cc(OCc2ncc(C(F)(F)F)cc2F)ccc1-c1[nH]c(C2CCC(F)(F)CC2)nc1Br [Example 337] | 3.07 |

Reference: patent US10570117B2, “Phenylimidazole compound” (Otsuka Pharmaceutical Factory, Inc., priority 2015, dated 2020)
